Measurements: patent publication US12516058B2, “Small-molecule compounds for controlling endosomal toll-like receptors and therapeutic agent for autoimmune diseases using same” (priority 2020, dated 2026)
“Also recorded” adds a separate entry of the source.

Legend:
TLR9 = target: T1, TLR9 (Mus musculus, UniProt Q9EQU3); test: TNF-α secretion ELISA after TLR9 agonist ODN2395 in RAW 264.7 cells; assay type: cell-based; conditions: SK21 to SK82 at 0.5 μM or 2 μM, ODN2395 0.5 μM
T1 construct: endogenous in cells; host or cells: RAW 264.7
T1 sequence (Q9EQU3 26-1032): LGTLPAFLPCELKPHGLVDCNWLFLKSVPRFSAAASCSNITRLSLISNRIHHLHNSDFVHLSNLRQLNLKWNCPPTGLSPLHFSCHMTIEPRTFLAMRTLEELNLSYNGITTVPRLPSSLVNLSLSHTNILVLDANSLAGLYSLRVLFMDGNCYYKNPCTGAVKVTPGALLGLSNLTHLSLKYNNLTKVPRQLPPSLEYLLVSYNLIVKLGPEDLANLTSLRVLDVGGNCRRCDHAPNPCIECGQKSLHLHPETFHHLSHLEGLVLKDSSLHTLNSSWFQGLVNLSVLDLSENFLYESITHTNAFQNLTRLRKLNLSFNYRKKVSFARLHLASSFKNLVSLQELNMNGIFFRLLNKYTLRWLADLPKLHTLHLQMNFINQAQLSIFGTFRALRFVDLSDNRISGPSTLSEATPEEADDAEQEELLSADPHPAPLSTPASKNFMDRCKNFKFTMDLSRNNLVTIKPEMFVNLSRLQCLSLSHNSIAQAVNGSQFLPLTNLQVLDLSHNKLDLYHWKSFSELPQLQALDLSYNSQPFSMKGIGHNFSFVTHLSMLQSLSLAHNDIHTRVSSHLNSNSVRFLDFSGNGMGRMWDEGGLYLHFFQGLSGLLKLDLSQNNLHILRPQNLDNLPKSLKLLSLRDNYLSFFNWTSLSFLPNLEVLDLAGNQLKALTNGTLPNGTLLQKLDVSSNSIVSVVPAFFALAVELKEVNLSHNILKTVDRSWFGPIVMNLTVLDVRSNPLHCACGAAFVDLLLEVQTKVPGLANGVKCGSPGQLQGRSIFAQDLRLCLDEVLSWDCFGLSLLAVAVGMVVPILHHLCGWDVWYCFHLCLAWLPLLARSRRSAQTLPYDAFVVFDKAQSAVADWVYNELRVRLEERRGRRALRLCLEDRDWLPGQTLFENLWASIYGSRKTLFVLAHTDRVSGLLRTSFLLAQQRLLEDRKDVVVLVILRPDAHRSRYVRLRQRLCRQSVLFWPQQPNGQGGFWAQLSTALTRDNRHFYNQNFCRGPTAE
Experimental: (§1) In order to determine the inhibitory activities of the test-ligand, RAW 264.7 cells were pretreated with each candidate compound for 1 hour, then treated with Pam3CSK4 (synthetic triacyl lipopeptide; TLR1/2, Invitrogen), FSL-1 (synthetic diacyl lipoprotein, TLR2/6, 100 ng/ml), lipopolysaccharide (LPS, TLR4, Sigma Aldrich), imiquimod (IMQ, TLR7, Invitrogen), and ODN2395 (type C CpG repeat motif DNA oligo(5′-[…]-3), TLR9, Bioneer) ligand for 4 hours, and treated with poly I:C (I:C repeat motif double-stranded RNA, TLR3, Invitrogen) and TL8-506 (TLR8, Invitrogen) showing delayed reactivity for 24 hours. After activation of TLR, the supernatant was diluted in an appropriate ratio so as to measure within the standard dose range, transferred to a pre-coated 96-well assay plate, and then treated with mouse TNF-alpha secretion level in accordance with the manufacturer's instructions using a mouse-TNF-alpha ELISA-kit (Invitrogen).
(§2) In order to plot the concentration-dependent LC50 curves, treatment with the SK series ligands at different concentrations up to 200 μM (the highest concentration that could be treated within the level of 0.5% DMSO) was performed. Then, cell viability and toxicity response upon treatment with ligands were analyzed by MTT as described in Examples 1-3. Cell viability in each plot was normalized from negative control (100%; no treatment) to positive control (highest concentration of test-ligand), and LC50 was determined by non-linear regression (Graph Pad Prism 7.0). In order to plot the concentration-dependent IC50 curves, pre-treatment with the SK series ligands was performed at different concentrations up to 50 μM (twice the initial concentration). Cell responses mediated by TLR7 and TLR9 (levels of TNF-α secretion) were analyzed by ELISA as described in Examples 1-4. The cytokine level in each plot was normalized from negative control (non-treated) to positive control (treatment with ligand), and IC50 was determined by non-linear regression (Graph Pad Prism 7.0).
(§3) In order to select potential inhibitory molecules against TLR3/TLR7/TLR8/TLR9 activation, first, MTT (3-(4,5-dimethylthiazol-2-yl)-2,5-diphenyltetrazolium bromide) cell viability assay (FIG. 7) was performed upon treatment with a set of ligands from SK21 to SK82 at a concentration of 20 μM and the inhibitory activity thereof was evaluated by an ELISA assay to monitor the level of TNF-α secretion in RAW 264.7 cells. The experimental ligands from SK21 to SK82 were administered at 0.5 μM or 2 μM to the RAW 264.7 cells and stimulated with Imiquimod (TLR7, 1 μg/ml) and OND2395 (TLR9, 0.5 μM).

TLR7 = target: T2, TLR7 (Mus musculus, UniProt P58681); test: TNF-α secretion ELISA after TLR7 agonist imiquimod (IMQ) in RAW 264.7 cells; assay type: cell-based; conditions: SK21 to SK82 at 0.5 μM or 2 μM, Imiquimod 1 μg/ml
T2 construct: endogenous in cells; host or cells: RAW 264.7
T2 sequence (P58681 27-1050): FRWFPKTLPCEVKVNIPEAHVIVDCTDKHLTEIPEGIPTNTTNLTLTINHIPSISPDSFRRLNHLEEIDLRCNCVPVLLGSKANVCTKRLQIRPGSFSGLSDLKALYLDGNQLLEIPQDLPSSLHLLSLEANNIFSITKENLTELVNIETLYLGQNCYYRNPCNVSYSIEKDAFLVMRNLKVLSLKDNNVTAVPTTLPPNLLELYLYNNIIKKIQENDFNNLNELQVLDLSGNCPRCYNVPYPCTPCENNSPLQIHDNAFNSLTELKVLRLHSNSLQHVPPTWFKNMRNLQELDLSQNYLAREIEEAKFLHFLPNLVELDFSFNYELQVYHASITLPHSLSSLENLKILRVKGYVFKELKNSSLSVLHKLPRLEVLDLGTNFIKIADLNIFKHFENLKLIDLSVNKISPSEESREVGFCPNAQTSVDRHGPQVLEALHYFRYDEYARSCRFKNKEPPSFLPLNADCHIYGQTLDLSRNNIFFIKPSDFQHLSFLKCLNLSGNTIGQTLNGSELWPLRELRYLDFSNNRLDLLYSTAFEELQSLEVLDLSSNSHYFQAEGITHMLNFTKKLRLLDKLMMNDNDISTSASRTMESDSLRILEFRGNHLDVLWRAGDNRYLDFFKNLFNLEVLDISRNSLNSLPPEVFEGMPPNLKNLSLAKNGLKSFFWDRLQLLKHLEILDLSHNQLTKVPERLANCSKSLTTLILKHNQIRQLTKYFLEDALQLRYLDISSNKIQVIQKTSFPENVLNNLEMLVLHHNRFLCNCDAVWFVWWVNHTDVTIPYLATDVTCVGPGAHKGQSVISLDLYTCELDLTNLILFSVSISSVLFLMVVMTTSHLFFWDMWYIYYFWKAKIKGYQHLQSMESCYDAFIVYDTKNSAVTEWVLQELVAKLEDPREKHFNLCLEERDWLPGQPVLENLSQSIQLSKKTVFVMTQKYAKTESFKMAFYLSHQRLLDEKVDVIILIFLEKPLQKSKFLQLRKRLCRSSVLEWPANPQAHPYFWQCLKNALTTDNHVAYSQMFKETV
Experimental: as §1, §2, §3

Structure (SMILES) | inhibitory activity against TLR9 (level of TNF-α secretion) (TLR9) | inhibitory activity against TLR7 (level of TNF-α secretion) (TLR7) | inhibitory activity against TLR9 (level of TNF-α secretion) (TLR9; listed as SK 74) | inhibitory activity against TLR7 (level of TNF-α secretion) (TLR7; listed as SK 74)
CN(C)CCCn1c2cc(Cl)ccc2c2c(N)c3c(nc21)CCCC3 [SK82, 8-chloro-6-(3-(dimethylamino)propyl)-2,3,4,6-tetrahydro-1H-indolo[2,3-b]quinolin-11-amine] | significant inhibitory activity; also recorded: significantly reduced | significant inhibitory activity; also recorded: significantly reduced |  | 
Cc1cc2c(N)c3c(nc2n1CCCN(C)C)CCCCC3 [SK29, 1-(3-(dimethylamino)propyl)-2-methyl-1,5,6,7,8,9-hexahydrocyclohepta[b]pyrrolo[3,2-e]pyridin-4-amine] | significant inhibitory activity; also recorded: significantly reduced | significant inhibitory activity; also recorded: significantly reduced |  | 
CNCCCn1c2ccccc2c2c(N)c3c(nc21)CCCC3 [SK55, 6-(3-(methylamino)propyl)-2,3,4,6-tetrahydro-1H-indolo[2,3-b]quinolin-11-amine] | significant inhibitory activity; also recorded: significantly reduced | significant inhibitory activity; also recorded: significantly reduced |  | 
CN(C)CCCn1c2ccc(C(F)(F)F)cc2c2c(N)c3c(nc21)CCCC3 [SK63, 6-(3-(dimethylamino)propyl)-9-(trifluoromethyl)-2,3,4,6-tetrahydro-1H-indolo[2,3-b]quinolin-11-amine] | significant inhibitory activity; also recorded: significantly reduced | significant inhibitory activity; also recorded: significantly reduced |  | 
CN(C)CCCn1c2ccc(C#N)cc2c2c(N)c3c(nc21)CCCC3 [SK62, 11-amino-6-(3-(dimethylamino)propyl)-2,3,4,6-tetrahydro-1H-indolo[2,3-b]quinolin-9-carbonitrile] | significant inhibitory activity; also recorded: significantly reduced | significant inhibitory activity; also recorded: significantly reduced |  | 
CN(C)CCCn1c2ccc(OC(F)(F)F)cc2c2c(N)c3c(nc21)CCCC3 [SK61, 6-(3-(dimethylamino)propyl)-9-(trifluoromethoxy)-2,3,4,6-tetrahydro-1H-indolo[2,3-b]quinolin-11-amine] | significant inhibitory activity; also recorded: significantly reduced | significant inhibitory activity; also recorded: significantly reduced |  | 
CN(C)CCCn1c2ccccc2c2c(N)c3c(nc21)CCCC3 [SK52, 6-(3-(dimethylamino)propyl)-2,3,4,6-tetrahydro-1H-indolo[2,3-b]quinolin-11-amine] | significant inhibitory activity; also recorded: significantly reduced | significant inhibitory activity; also recorded: significantly reduced |  | 
COc1ccc2c3c(N)c4c(nc3n(CCCN(C)C)c2c1)CCCC4 [SK65, 6-(3-(dimethylamino)propyl)-8-methoxy-2,3,4,6-tetrahydro-1H-indolo[2,3-b]quinolin-11-amine] | significant inhibitory activity; also recorded: significantly reduced | significant inhibitory activity; also recorded: significantly reduced |  | 
CN(C)CCCn1c2ccc(O)cc2c2c(N)c3c(nc21)CCCC3 [SK71, 11-amino-6-(3-(dimethylamino)propyl)-2,3,4,6-tetrahydro-1H-indolo[2,3-b]quinolin-9-ol] | significant inhibitory activity; also recorded: significantly reduced | significant inhibitory activity; also recorded: significantly reduced |  | 
CN(C)CCCn1c2ccc3ccccc3c2c2c(N)c3c(nc21)CCCC3 [SK74, 7-(3-(dimethylamino)propyl)-9,10,11,12-tetrahydro-7H-benzo[4,5]indolo[2,3-b]quinolin-13-amine] | significantly reduced | significantly reduced | significant inhibitory activity | significant inhibitory activity
CCc1nc2c(cc(C)n2CCCN(C)C)c(N)c1C [SK40, 1-(3-(dimethylamino)propyl)-6-ethyl-2,5-dimethyl-1H-pyrrolo[2,3-b]pyridin-4-amine] | significant inhibitory activity; also recorded: significantly reduced | significant inhibitory activity; also recorded: significantly reduced |  | 
